Experimental data as given in patent publication US7141394B2, “More stable analog of isopropyl thiogalactoside for induction of protein expression” (Iowa State University Research Foundation, Inc., priority 2003, dated 2006).
Entries after “also recorded” stand apart in the source; their conditions may differ.

Tests used:
lac promoter = assay: EGFP fluorescence reporter assay of induction of protein expression under the lac promoter; assay type: cell-based, E. coli; conditions: for EGFP fluorescence emission at 507 nm after excitation at 488 nm, normalized for the number of cells: induced at OD600 0.7, versus culture without inducer
Text: To compare the ability of the C-glycoside to take the place of IPTG in the induction of protein expression, assays of promoter activity that rely on production of a fluorescent protein were pursued. Reporters for gene activity in bacteria that rely on green fluorescent protein (GFP) and its variants have become very popular as they have been validated by direct comparison to traditional reporter assays using either chloroamphenicol acetyltransferase or β-galactosidase. For bacterial studies, the enhanced green fluorescent protein (EGFP) is particularly useful as it is not toxic to E. coli like the wild type GFP itself and the protein folds and autocatalyzes formation of its fluorophore with a half-life of less than 45 minutes rather than hours. Therefore, the gene for EGFP (BD Biosciences) was ligated into a pET vector plasmid using NcoI and EcoRI in order to have control of EGFP protein expression with a lac promoter system and to have low background protein expression levels. This plasmid was transformed into E. coli BL21 DE(3) cells for protein expression studies. The cells were grown to an optical density of 0.7 (at 600 nm) and then protein production was induced with either IBCG or IPTG. The fluorescence emission at 507 nm after excitation at 488 nm, normalized for the number of cells, was plotted as a function of time (data not shown) as previously reported.

[1] = Stability of the inducer in solution on storage; assay type: physicochemical; conditions: ambient / room temperature; in water
Text: This improved stability feature of IBCG also results in more accurate concentrations of the compound when used in experiments.
The latter property is especially valuable for small scale culture induction and for cases in which a more precise concentration of inducer is desirable.

[2] = E. coli BL21 DE(3) with pET-EGFP plasmid

SMILES | EGFP fluorescence emission at 507 nm after excitation at 488 nm, normalized for the number of cells (lac promoter; [2]) | EGFP fluorescence of IBCG induced cells compared with IPTG induced cells (lac promoter; E. coli BL21 DE(3) with pET-EGFP plasmid, induction times of greater than four hours) | cell permeability (lac promoter; E. coli cells, inferred from induction of protein expression) | stability in solution [1]
CC(C)CC1OC(CO)C(O)C(O)C1O [IBCG, 1-isobutyl-,β-D-galactose] | considerably larger | even greater fluorescence than the IPTG induced cells | retains cell permeability | stable in solution at ambient temperature; also recorded: can be autoclaved in water and stored in room temperature
CC(C)S[C@@H]1O[C@H](CO)[C@H](O)[C@H](O)[C@H]1O [IPTG, isopropyl-β-D-thiogalactopyranoside, reference compound] | considerably larger | – | – | –
